# Where “and” joins values, the source holds several entries; their conditions need not be identical. Equal values may be shown once.
# How the values were obtained:
# [1] = system: DIO mice; assay: 28-day study in DIO mice: body weight, blood glucose, food intake; type: in vivo; details: for weight loss: after 28 days
# Method: To further characterize and understand the efficacy of the fusion proteins, body weight and metabolic parameters were measured throughout a 28-day study in DIO mice (Beijing Vital River Laboratory Animal Technology Co., Ltd.).
# The effects of all fusion proteins on blood glucose reduction and food intake were determined in the DIO mice described above (FIG. 7A and FIG. 7B). All mice are bled after fasting for 6 hours to measure blood glucose twice weekly.
# [2] = system: C57BL mice; assay: Intraperitoneal glucose tolerance test (IPGTT) after single SC injection; type: in vivo; details: for glucose reduction (IPGTT): single SC 100 or 300 nmol/kg; for glucose-lowering effect (IPGTT): single SC, P19 15 nmol/kg, P28 10 or 30 nmol/kg (FIG. 5 legend)
# Method: The effect of the fusion proteins on glucose tolerance was determined in C57BL mice (Beijing Vital River Laboratory Animal Technology Co., Ltd.). Each group (6 mice per group) received a single subcutaneous injection of PBS vehicle control, dulaglutide (TRULICITY® brand) (Vetter Pharma-Fertigung GmbH & Co. […] Intraperitoneal glucose tolerance tests (IPGTT) were performed on Day 1, 7, 14, 21, up to 28 after 6 hours fasting with tail vein blood glucose measurements at 0, 15, 30, 60, and 120 minutes.
# [3] = cited from earlier work
Compound,weight loss ([1]; 10 nmol/kg twice weekly),weight loss ([1]; 30 nmol/kg twice weekly) [%],glucose reduction (IPGTT) ([2]; Day 1),glucose reduction (IPGTT) ([2]; Day 7 and 14),glucose reduction (IPGTT) ([2]; Day 21),half-life in mice [3],decrease in body weight compared with dulaglutide ([1]; twice weekly),glucose-lowering effect (IPGTT) ([2]; Day 1),glucose-lowering effect (IPGTT) ([2]; Day 7)
dulaglutide [reference compound],10.9% and 11%,16.6,very strong glucose reduction,rapidly waned,completely lost effect,,,,
"CC[C@H](C)[C@H](NC(=O)[C@H](CC(C)C)NC(=O)[C@H](Cc1c[nH]c2ccccc12)NC(=O)[C@H](CCC(N)=O)NC(=O)[C@@H](NC(=O)[C@H](Cc1ccccc1)NC(=O)[C@H](C)NC(=O)[C@H](CCCCNC(=O)COCCOCCNC(=O)COCCOCCNC(=O)CC[C@H](NC(=O)CCCCCCCCCCCCCCCCCCC(=O)O)C(=O)O)NC(=O)[C@H](CCC(N)=O)NC(=O)[C@H](C)NC(=O)[C@@H](NC(=O)[C@H](CCCCN)NC(=O)[C@H](CC(=O)O)NC(=O)[C@H](CC(C)C)NC(=O)C(C)(C)NC(=O)[C@@H](NC(=O)[C@H](CO)NC(=O)[C@H](Cc1ccc(O)cc1)NC(=O)[C@H](CC(=O)O)NC(=O)[C@H](CO)NC(=O)[C@@H](NC(=O)[C@H](Cc1ccccc1)NC(=O)[C@@H](NC(=O)CNC(=O)[C@H](CCC(=O)O)NC(=O)C(C)(C)NC(=O)[C@@H](N)Cc1ccc(O)cc1)[C@@H](C)O)[C@@H](C)O)[C@@H](C)CC)[C@@H](C)CC)C(C)C)C(=O)N[C@@H](C)C(=O)NCC(=O)NCC(=O)N1CCC[C@H]1C(=O)N[C@@H](CO)C(=O)N[C@@H](CO)C(=O)NCC(=O)N[C@@H](C)C(=O)N1CCC[C@H]1C(=O)N1CCC[C@H]1C(=O)N1CCC[C@H]1C(=O)N[C@@H](CO)C(N)=O [P19, Tirzepatide, reference compound]",,26,,,,less than one day,more significant dose-dependent decrease in body weight,showed glucose-lowering effects,lost all effects

# From patent publication US20250270274A1, “SUPER LONG-LASTING GLP1 OR GLP1/GIP ANALOGUE DRUG FOR TYPE-2 DIABETES AND OBESITY” (Serpentide Inc., priority 2024, published 2025)
